Measured values from the supplement of paper PMC11451515.

System: SEM cells
Experiment: cell viability relative to DMSO control; higher = less cytotoxic
Settings: 48 h
Outline: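 Library compounds in DMSO were pin-dosed in an 11-point threefold series (47 μM to 0.79 nM) onto leukemia cells in 1536-well plates (5 μl). Plates held 500 cells/well of NOMO1 or SEM or 1000 cells/well of P12-Ichikawa, each adapted for at least four passages in each medium. Luminescence was read with CellTiter-Glo One after 48 h at 37°C. Viability means the per-plate percentage relative to DMSO wells, using cell-free wells as background.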

[1] = HPLM + 10% dialyzed FBS, 0.000781 µM
[2] = HPLM + 10% dialyzed FBS, 0.00234 µM
[3] = HPLM + 10% dialyzed FBS, 0.00702 µM
[4] = HPLM + 10% dialyzed FBS, 0.0211 µM
[5] = HPLM + 10% dialyzed FBS, 0.0632 µM
[6] = HPLM + 10% dialyzed FBS, 0.19 µM
[7] = HPLM + 10% dialyzed FBS, 0.569 µM
[8] = HPLM + 10% dialyzed FBS, 1.71 µM
[9] = HPLM + 10% dialyzed FBS, 5.12 µM
[10] = HPLM + 10% dialyzed FBS, 15.4 µM
[11] = HPLM + 10% dialyzed FBS, 46.1 µM
[12] = RPMI 5 mM glucose + 10% FBS, 0.000781 µM
[13] = RPMI 5 mM glucose + 10% FBS, 0.00234 µM
[14] = RPMI 5 mM glucose + 10% FBS, 0.00702 µM
[15] = RPMI 5 mM glucose + 10% FBS, 0.0211 µM
[16] = RPMI 5 mM glucose + 10% FBS, 0.0632 µM
[17] = RPMI 5 mM glucose + 10% FBS, 0.19 µM
[18] = RPMI 5 mM glucose + 10% FBS, 0.569 µM
[19] = RPMI 5 mM glucose + 10% FBS, 1.71 µM
[20] = RPMI 5 mM glucose + 10% FBS, 5.12 µM
[21] = RPMI 5 mM glucose + 10% FBS, 15.4 µM
[22] = RPMI 5 mM glucose + 10% FBS, 46.1 µM
[23] = RPMI 5 mM glucose + 10% dialyzed FBS, 0.000781 µM
[24] = RPMI 5 mM glucose + 10% dialyzed FBS, 0.00234 µM
[25] = RPMI 5 mM glucose + 10% dialyzed FBS, 0.00702 µM
[26] = RPMI 5 mM glucose + 10% dialyzed FBS, 0.0211 µM
[27] = RPMI 5 mM glucose + 10% dialyzed FBS, 0.0632 µM
[28] = RPMI 5 mM glucose + 10% dialyzed FBS, 0.19 µM
[29] = RPMI 5 mM glucose + 10% dialyzed FBS, 0.569 µM
[30] = RPMI 5 mM glucose + 10% dialyzed FBS, 1.71 µM
[31] = RPMI 5 mM glucose + 10% dialyzed FBS, 5.12 µM
[32] = RPMI 5 mM glucose + 10% dialyzed FBS, 15.4 µM
[33] = RPMI 5 mM glucose + 10% dialyzed FBS, 46.1 µM

| SMILES | cell viability [1] [%] | cell viability [2] [%] | cell viability [3] [%] | cell viability [4] [%] | cell viability [5] [%] | cell viability [6] [%] | cell viability [7] [%] | cell viability [8] [%] | cell viability [9] [%] | cell viability [10] [%] | cell viability [11] [%] | cell viability [12] [%] | cell viability [13] [%] | cell viability [14] [%] | cell viability [15] [%] | cell viability [16] [%] | cell viability [17] [%] | cell viability [18] [%] | cell viability [19] [%] | cell viability [20] [%] | cell viability [21] [%] | cell viability [22] [%] | cell viability [23] [%] | cell viability [24] [%] | cell viability [25] [%] | cell viability [26] [%] | cell viability [27] [%] | cell viability [28] [%] | cell viability [29] [%] | cell viability [30] [%] | cell viability [31] [%] | cell viability [32] [%] | cell viability [33] [%] |
| --- | --- | --- | --- | --- | --- | --- | --- | --- | --- | --- | --- | --- | --- | --- | --- | --- | --- | --- | --- | --- | --- | --- | --- | --- | --- | --- | --- | --- | --- | --- | --- | --- | --- |
| COc1cc2nc(N3CCCN(C)CC3)nc(NC3CCN(Cc4ccccc4)CC3)c2cc1OC | 92.1 | 122 | 129 | 111 | 130 | 119 | 125 | 98.1 | 60.1 | 37.5 | 10.2 | 104 | 116 | 140 | 113 | 132 | 127 | 143 | 97.7 | 108 | 44.8 | 11.5 | 112 | 117 | 131 | 104 | 128 | 132 | 132 | 131 | 92.3 | 55.9 | 19.1 |
| CC1=C(C=CC=C1)N2\C(=N/C3=C(C(=CC=C3)C)C2=O)C[N]4N=CC5=C4N=CN=C5N | 99.5 | 117 | 119 | 128 | 124 | 128 | 121 | 123 | 125 | 117 | 121 | 100 | 124 | 141 | 113 | 113 | 136 | 135 | 135 | 124 | 131 | 119 |  |  |  |  |  |  |  |  |  |  |  |
| CC(C)(C)C(=O)OCOP(=O)(COCCn1cnc2c(N)ncnc21)OCOC(=O)C(C)(C)C | 84.1 | 112 | 104 | 101 | 71.9 | 51 | 68.1 | 38.1 | 25.6 | 14.1 | 7.08 | 108 | 101 | 108 | 88 | 61.7 | 42.7 | 51.4 | 26.5 | 13 | 7.59 | 2.97 | 86.6 | 95.4 | 95.3 | 85.1 | 48.5 | 39.8 | 42.2 | 23.2 | 13 | 10.9 | 3.51 |
| [NH2][Pt]([NH2])([Cl])[Cl] | 93.8 | 96 | 94.5 | 95.2 | 107 | 99.4 | 92.2 | 89.6 | 79.1 | 70.9 | 62.1 | 82.9 | 105 | 101 | 93.2 | 102 | 98.8 | 118 | 71 | 70.9 | 65.1 | 52.4 | 85 | 85.3 | 88.1 | 89.5 | 86.8 | 97.8 | 88.1 | 74.3 | 65.9 | 55.3 | 51.8 |
| O=C1Nc2ccc(Cl)cc2[C@@](C#CC2CC2)(C(F)(F)F)O1 | 65.1 | 74 | 86.3 | 95 | 86 | 88.4 | 88.8 | 80.2 | 88.9 | 96 | 93.4 | 71.8 | 69.8 | 82.2 | 84.9 | 89.6 | 84.6 | 84.4 | 87.8 | 85.9 | 91.6 | 63.7 | 62.1 | 70 | 89.5 | 81.2 | 82.7 | 78.9 | 85.6 | 81.5 | 81.8 | 84.8 | 54.7 |
| COc1cc(C(C)=O)ccc1OCCCN1CCC(c2noc3cc(F)ccc23)CC1 | 110 | 112 | 118 | 95 | 99.3 | 124 | 123 | 123 | 122 | 128 | 88.7 |  |  |  |  |  |  |  |  |  |  |  | 113 | 121 | 137 | 135 | 115 | 142 | 160 | 135 | 158 | 138 | 106 |
| CC(C)C[C@H](NC(=O)[C@@H](NC(=O)c1cccc(-c2ccccc2)n1)[C@@H](C)O)B(O)O | 98.1 | 110 | 108 | 31.3 | 9.24 | 8.75 | 8.47 | 8.47 | 7.07 | 4.73 | 3.46 | 93 | 107 | 99 | 18.2 | 9.27 | 9.18 | 8.81 | 8.15 | 6.37 | 4.03 | 3.46 | 87.3 | 100 | 95.9 | 28.4 | 9.88 | 9.98 | 9.77 | 9.35 | 6.09 | 3.83 | 3.48 |
| CC(=O)N1CCN(c2ccc(OC[C@H]3CO[C@](Cn4ccnc4)(c4ccc(Cl)cc4Cl)O3)cc2)CC1 | 98.3 | 97.8 | 104 | 95.2 | 107 | 26.4 | 90.9 | 92.8 | 21.5 | 87.1 | 86.4 | 124 | 136 | 121 | 125 | 134 | 28 | 113 | 104 | 14.1 | 90.5 | 48.5 |  |  |  |  |  |  |  |  |  |  |  |
| NC1=NC=C(C=C1)C2=CC=C3N=CC\4=C(N(C(=O)\C=C4)C5=CC(=CC=C5)C(F)(F)F)C3=C2 | 67.9 | 65.8 | 53.2 | 46.5 | 37.5 | 24.7 | 28.6 | 24.3 | 13.3 | 8.87 | 14.3 | 84.7 | 81.8 | 74.2 | 57.2 | 42.2 | 27.9 | 21.8 | 24.8 | 8.57 | 13.8 | 7.9 | 70.5 | 66.7 | 46.2 | 44.4 | 34.8 | 23.6 | 21.6 | 22.5 | 5.98 | 5.05 | 8.96 |
| C[C@@H](O)[C@@H]1[C@H]2[C@@H](C)\C(=C(/N2C1=O)C(=O)OCOC(=O)C(C)(C)C)SC3CN(C3)/C4=N/CCS4 | 74.8 | 95.7 | 99.2 | 112 | 117 | 102 | 101 | 108 | 107 | 97.2 | 82.1 | 88.7 | 114 | 119 | 117 | 101 | 116 | 111 | 125 | 117 | 109 | 72.8 | 82.5 | 109 | 120 | 113 | 122 | 138 | 106 | 113 | 121 | 121 | 85.9 |
| O=C(O)c1ccc(-n2nc(-c3ccccc3O)nc2-c2ccccc2O)cc1 | 86.4 | 93 | 85.3 | 92 | 90.9 | 94.6 | 96.4 | 98 | 101 | 82.1 | 43 | 80.7 | 76.6 | 86.7 | 86.8 | 100 | 96.9 | 93.3 | 93.7 | 108 | 66 | 24.9 | 77.6 | 76 | 91 | 98.1 | 95.5 | 108 | 102 | 102 | 99.1 | 58.8 | 19.4 |
| OCc1ccc(-c2nn(Cc3ccccc3)c3ccccc23)o1 | 115 | 128 | 124 | 111 | 113 | 113 | 117 | 38.1 | 96.1 | 44.6 | 19.3 | 116 | 110 | 126 | 100 | 119 | 107 | 98.1 | 18.2 | 80.9 | 37.4 | 11.2 |  |  |  |  |  |  |  |  |  |  |  |
| Cn1cc(-c2ccc3nnc(C(F)(F)c4ccc5ncccc5c4)n3n2)cn1 | 103 | 117 | 115 | 99.6 | 111 | 108 | 113 | 106 | 106 | 95.4 | 82 | 123 | 115 | 120 | 112 | 126 | 132 | 126 | 123 | 114 | 121 | 81.5 | 96 | 114 | 104 | 102 | 105 | 111 | 98.6 | 97.2 | 94.8 | 90.5 | 67.2 |
| CC(=O)CC(C1=CC=CC=C1)C/2=C(O)/C3=CC=CC=C3OC2=O (centres undefined) | 80.7 | 101 | 114 | 71.7 | 119 | 114 | 103 | 110 | 116 | 113 | 120 | 110 | 104 | 105 | 73.1 | 105 | 105 | 115 | 118 | 115 | 125 | 137 | 84.4 | 103 | 114 | 73.4 | 111 | 123 | 119 | 125 | 128 | 126 | 123 |
| CCC(=O)OCC(=O)[C@@]1(OC(=O)CC)[C@@H](C)C[C@H]2[C@@H]3CCC4=CC(=O)C=C[C@]4(C)[C@@]3(F)[C@@H](O)C[C@@]21C | 78.1 | 99.1 | 93.2 | 98.5 | 100 | 102 | 84.2 | 90.7 | 91.8 | 70.2 | 61.2 | 104 | 114 | 116 | 114 | 116 | 95.6 | 87.3 | 71.5 | 79.4 | 69.9 | 50.3 | 116 | 115 | 126 | 112 | 115 | 88.5 | 92.6 | 75.3 | 69.7 | 65.9 | 48.8 |
| COc1cc(O)c2c(c1)C1OC1C[C@H](O)[C@H](O)C(=O)/C=C\C[C@H](C)OC2=O (some centres undefined) | 95.5 | 93.1 | 111 | 108 | 125 | 125 | 101 | 114 | 55.5 | 31.4 | 7.96 | 101 | 103 | 108 | 86.9 | 114 | 108 | 117 | 101 | 58 | 30.7 | 4.26 | 101 | 119 | 117 | 127 | 109 | 121 | 102 | 110 | 47.6 | 24.4 | 5.3 |
